Data: patent US10233206B2, “D-fagomine for the control of inflammatory processes related to an overactivation of the humoral immune response” (priority 2013, dated 2019)
Values joined by “and” are separate entries in the source; they are usually repeats but may differ in a detail not shown here. Equal entries are not always repeated. “Also recorded” adds a separate entry of the source.

Assays:
[1] = tested on: E. coli 434; experiment: Recovery of E. coli in tissue: ex vivo adhesion of E. coli to human colon mucosal samples (organ culture); assay type: cell-based; settings: for E coli × 10 6 Recovery on tissue: 4 h culture with E. coli, individual samples 1 and 2; for E coli × 10 6 Standarized 30 mg, Average: mean of 2 samples; for E coli × 10 6 Standarized 30 mg: normalized to 30 mg tissue, individual samples; for E. coli recovery in tissue, Average % over control: control Ec = 100.0%
Procedure: (§1) The aim of this investigation was to determine the effects “ex vivo” of D-fagomine on the adhesion of E. coli to human colon mucosal samples and their possible influence on the release of inflammatory mediators on a range of doses as an indication of the activation of the innate immune response.
(§2) The approach, included the incubation of an E. coli strain with mucosal colonic samples obtained by surgery. The intention was to preserve the whole structure of mucosal samples including multiple cell populations such as epithelial cells and immunocompetent cells (macrophages, dendritic cells, plasma cells and lymphocytes), all of them keeping their original structure and disposition for cell to cell interaction. In other words, the approach was intended for mimicking the “in vivo” conditions of the colon mucosa.
In the design of the study doses of 0, 50, 500 and 5000 μg/ml of D-fagomine were tested.
Pathogenic strains of E coli were used. The main differences of pathogenic strains of E coli vs. other non pathogenic are related to their capacity to avoid the immune system.
(§3) Samples of macroscopically normal colonic mucosa were obtained at surgery from patients undergoing colectomy for colonic cancer. Areas free of disease were collected in ice-cold saline and transferred immediately to the Laboratory of the Digestive Research Unit of Hospital's Vail d'Hebron (Barcelona). After washing with saline, the mucosa was dissected from the muscularis layer and pieces between 25 and 30 mg were placed surface up in culture wells (15 mm diameter wells with 500 μm bottom mesh, Netwell culture systems, Costar, Cambridge, Mass.), and orientated so that the epithelial surface was upper-most. Filters were suspended over wells containing 1.5 ml of RPMI edium (CanSera, Rexdale, Ontario, Canada) supplemented with 10% foetal calf serum (FCS; Gibco-BRL, Eggenstein, Germany), glutamine 2 mM and antibiotics: 100 U/ml penicillin, 100 microg/ml streptomycin and 50 microg/ml gentamycin, (all from Normon, Madrid, Spain). This volume is just for maintaining the humidity of the surface but not for sinking beneath the surface.
(§4) Biopsies were incubated at 37° C. in a 95% O2+5% CO2 atmosphere and stimulated during 1 h with PMA (phorbol-12-myristate-13-acetate) and lonomycin (100/1000 ng/mL), both available from Sigma.
(§5) Thereafter, medium was replaced by fresh RPMI 1640 medium (without glucose) supplemented with 10% FCS and sodium bicarbonate at 24 mmol/L.
(§6) Bacteria strain E. coli ([…]) and fagomine (50, 500 and 5000 μg/mL) were added carefully to the explants. After 4 h of culture of tissues with E. coli, supernatants were collected for measurement of E. coli recovery, release of TNF-α, LDH (viability) and pH. Moreover, the tissues were rinsed, homogenized and assayed for E. coli recovery and LDH (to study tissue viability).
The pathogenic E. coli reference strain (CECT 434, (Migula 1895) Castellani and Chalmers 1919) was provided by Dr. Maria Angeles Calvo (Microbiology Laboratory, Faculty of Veterinary, Autonomous University of Barcelona, Spain)
The day before of the experiment with tissue, the E. coli strain was inoculated in Luria Bertani broth (Pharmacy, Hospital Vail d'Hebron, Autonomous University of Barcelona, Spain) at 37° C. under aerobic conditions for 24 h. The day of the experiment bacteria were harvested in the stationary phase, cell counts in the bacterial suspension were estimated by optical density at 600 nm absorbance, and bacteria were added to the tissue-culture wells at the appropriate dilution.
In order to quantify only the adherent E. coli bacteria, at the end of the culture, tissues were recovered and rinsed with 2 ml of saline in an orbital mixer at low speed during 2 minutes. After rinsing, each tissue was homogenized in 1 ml of saline and dilutions were prepared to quantify the recovery of E. coli in solid agar selective media. […]

[2] = tested on: TNF-α; experiment: TNF-α release into the supernatant of human colon mucosa organ culture with E. coli (ELISA); assay type: cell-based; settings: for TNF-alfa (1.5 ml standarized 30 mg) / TNF-alfa/ml: individual samples, listed as Fag; for TNF-alfa (1.5 ml standarized 30 mg, Average): mean of 2 samples; for TNF-alfa/ml: supernatant after 4 h
Procedure: as §1, §2, §3, §4, §5, §6
Concentration of TNF-α in the supernatants was measured using a commercially available ELISA assay system for human citoquine TNF-α (Ready to Set, e-Bioscience). Cytokine concentration is expressed as pg (TNF-α) per 30 mg of tissue.

[3] = tested on: colon tissue; experiment: Colon viability (LDH release); assay type: cell-based, human
Procedure: as §3, §6
To estimate tissue viability, we calculated LDH (lactate-dehydrogenase) activity release in the supernatant. This method was validated by Finnie (Gut 1995). The ratio of LDH activity in the supernatant over total LDH activity in tissue homogenates was calculated and used to estimate the percentage of viable tissue. Tissue samples were homogenized in Tris/HCl (100 mmol/L, pH 7.4) and supernatants were analysed for LDH using the spectrophotometric method. Tissue viability was assessed as the release of LDH per mg of tissue.

[4] = tested on: bacteria; settings: Gomez L. et al.; Castillo J. A. et al.; cited from earlier work
[5] = Gomez L. et al. Br. J. Nutr. 2012; cited from earlier work
[6] = tested on: bacteria; settings: WO2011117362; cited from earlier work
[7] = Kim H. et al. 2005; cited from earlier work
[8] = D-fagomine 50 μg/ml, listed as Fag
[9] = D-fagomine 500 μg/ml, listed as Fag
[10] = D-fagomine 50 μg/ml with E. coli
[11] = D-fagomine 500 μg/ml with E. coli
[12] = D-fagomine 5000 μg/ml with E. coli

In the case of `OC[C@H]1NCC[C@@H](O)[C@@H]1O` (stereo in doubt) [D-fagomine, (2R, 3R, 4R)-2-hydroxymethylpiperidine-3,4-diol], the “Antiadherent effect against E. coli on colon mucosa (in words)” value ([1]; 50, 500 and 5000 μg/ml) is reported as “antiadherent properties against E. coli in a dose dependent manner; also recorded: antiadherent effect against E. coli on the colon epithelium”, the “E coli × 10 6 Recovery on tissue” value [1, 8] is reported as 4 × 10 6 and 4.4 × 10 6 and the “E coli × 10 6 Standarized 30 mg, Average” value ([1]; D-fagomine 50 μg/ml) is reported as 4.22 × 10 6. The “E coli × 10 6 Standarized 30 mg” value [1, 8] was 4.12 × 10 6 and 4.31 × 10 6, the “E. coli recovery in tissue, Average % over control” value ([1]; D-fagomine 50 μg/ml) was 56.6% and the “E coli × 10 6 Recovery on tissue” value [1, 9] was 2.4 × 10 6 and 0.8 × 10 6. For the same compound, the “E coli × 10 6 Standarized 30 mg, Average” value ([1]; D-fagomine 500 μg/ml) was 1.56 × 10 6, the “E coli × 10 6 Standarized 30 mg” value [1, 9] was 2.21 × 10 6 and 0.9 × 10 6 and the “E. coli recovery in tissue, Average % over control” value ([1]; D-fagomine 500 μg/ml) was 21.0%. The “E coli × 10 6 Recovery on tissue” value ([1]; D-fagomine 5000 μg/ml) was 1.6 × 10 6, the “E coli × 10 6 Standarized 30 mg, Average” value ([1]; D-fagomine 5000 μg/ml) was 1.47 × 10 6 and the “E coli × 10 6 Standarized 30 mg” value ([1]; D-fagomine 5000 μg/ml, listed as Fag) was 1.4 × 10 6 and 1.55 × 10 6. For the same compound, the “E. coli recovery in tissue, Average % over control” value ([1]; D-fagomine 50 or 5000 μg/ml) was 19.8%, the “TNF-alfa release at 50 μg/mL, times higher than at 500 μg/mL” value ([2]; 50 μg/mL versus 500 μg/mL) was 5 times and the “TNF-alfa release at 50 μg/mL, times higher than at 5000 μg/mL” value ([2]; 50 μg/mL versus 5000 μg/mL) was ~8 times. The “Stimulation of TNF-alfa release (in words)” value ([2]; 50, 500 and 5000 μg/ml with E. coli) was “capacity to stimulate the release of TNF-alfa and that the lower is the dose the more potent is such release; also recorded: stimulating the release of TNF-alfa either with respect to the control with E. coli or with respect to the control without E. coli”, the “TNF-alfa (1.5 ml standarized 30 mg)” value [2, 10] was 145.4 pg (TNF-α) per 30 mg of tissue and 164.2 pg (TNF-α) per 30 mg of tissue and the “TNF-alfa (1.5 ml standarized 30 mg, Average)” value [2, 10] was 154.8 pg (TNF-α) per 30 mg of tissue. The TNF-alfa/ml [2, 10] was 106.2 mL⁻¹ and 98.8 mL⁻¹, the “TNF-alfa (1.5 ml standarized 30 mg)” value [2, 11] was 31.9 pg (TNF-α) per 30 mg of tissue and 28.6 pg (TNF-α) per 30 mg of tissue and the “TNF-alfa (1.5 ml standarized 30 mg, Average)” value [2, 11] was 30.3 pg (TNF-α) per 30 mg of tissue. The TNF-alfa/ml [2, 11] was 20.7 mL⁻¹ and 18.6 mL⁻¹, the “TNF-alfa (1.5 ml standarized 30 mg)” value [2, 12] was 8.2 pg (TNF-α) per 30 mg of tissue and 18.1 pg (TNF-α) per 30 mg of tissue and the “TNF-alfa (1.5 ml standarized 30 mg, Average)” value [2, 12] was 13.2 pg (TNF-α) per 30 mg of tissue. For the same compound, the TNF-alfa/ml [2, 12] was 13.8 mL⁻¹ and 5.7 mL⁻¹, the “Viability LDH” value ([3]; E. coli + D-fagomine 50 μg/ml) was 88.20% and the “Viability LDH” value ([3]; E. coli + D-fagomine 500 μg/ml) was 91.47%. For the same compound, the “Viability LDH” value ([3]; E. coli + D-fagomine 5000 μg/ml) was 83.88%, the “Effect on viability of the tissue (in words)” value ([3]; coculture with E. coli or fagomine) was “does not affect the viability of the tissue” and the “Antimicrobial activity (in words)” value [4] was “do not show antimicrobial activity”. The “Postprandial blood glucose level and insulin secretion (in words)” value [5] was “decrease postprandrial blood glucose level without stimulating insulin secretion” and the “Bacterial adherence to mucosal surface (in words)” value [6] was “inhibiting bacterial adherence to mucosal surface”.
For `C[C@@H]1O[C@@H](OC[C@H]2O[C@@H](Oc3c(-c4ccc(O)c(O)c4)oc4cc(O)cc(O)c4c3=O)[C@H](O)[C@@H](O)[C@@H]2O)[C@H](O)[C@H](O)[C@H]1O` [rutin], the “Stability and deglycosylation in the intestine after oral administration (in words)” value [7] is given as “stable in the upper intestine, but rapidly deglycosylated to liberate the quercetin at the level of the colon”.
